Consider 31 compounds from patent US20260216294A1, “BETA 2-ADRENERGIC RECEPTOR AGONISTS FOR TREATMENT OR PREVENTION OF MUSCLE WASTING” (ATROGI AB, priority 2023, published 2026).

Each structure is given as a SMILES string. Bounds are passed on as bounds.

Experiment [1] has as its system L6-myotubes. The experiment in a line: Glucose uptake in differentiated L6-myotubes (Biological Example 2). The format is cell-based. To be noted: glucose uptake in differentiated L6-myotubes, compound at 10 μM, activity relative to isoproterenol at 10 μM; for Emax at 10 µM: read-out: Biological example 2 (GU). The essentials:
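Differentiated L6 myotubes were serum-starved overnight in 0.5% fatty-acid-free BSA and then stimulated with compound or isoprenaline at 1×10^−5 M final. After 1 h 40 min cells were washed and re-dosed in glucose-free medium. Twenty minutes later, uptake of 50 nM ^3H-2-deoxyglucose over 10 min was measured by scintillation counting of NaOH lysates.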

Experiment [2] deals with L6-myotubes. The experiment in a line: Measurement of intracellular cAMP levels in differentiated L6-myotubes (Biological Example 3). The format is cell-based. To be noted: intracellular cAMP in differentiated L6-myotubes, compound at 10 μM, activity relative to isoproterenol at 10 μM; for Emax at 10 µM: 0.25 h. The essentials:
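Serum-starved differentiated L6 myotubes stimulated 15 min with test compound at 1×10^−5 M final (isoprenaline as reference) in HBSS with 1% BSA, 5 mM HEPES, 1 mM IBMX, pH 7.4. Cells EtOH-extracted, lysed, and intracellular cAMP measured by AlphaScreen.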

Turning to `CS(=O)(=O)Nc1ccc(CC23CCC([C@@H](O)c4cccc(F)c4)(CC2)N3)cc1` [Compound 474, (S)-(m-fluorophenyl)(4-{[p-(mesylamino)phenyl]methyl}-7-azabicyclo[[2.2.1]]hept-1-yl)methanol], the figures for the Emax at 10 µM in experiment [1] and in experiment [2] were 50 to 75% and below 25%, respectively.

Regarding `CS(=O)(=O)Nc1ccc(CC23CCC([C@H](O)c4cccc(F)c4)(CC2)N3)cc1` [Compound 475, (R)-(m-fluorophenyl)(4-{[p-(mesylamino)phenyl]methyl}-7-azabicyclo[[2.2.1]]hept-1-yl)methanol], the Emax at 10 µM was 50 to 75% in experiment [1] and below 25% in experiment [2].

As for `CNS(=O)(=O)[C@H]1CC[C@H](CC(C)(C)NC[C@H](O)c2cccc(F)c2)CC1` [Compound 476], the Emax at 10 µM in experiment [1] is above 75%; in experiment [2] it was 25 to 50%.

For the compound `CNS(=O)(=O)[C@H]1CC[C@@H](CC(C)(C)NC[C@H](O)c2cccc(F)c2)CC1` [Compound 477, (R)-2-{1,1-dimethyl-2-[(1s,4S)-4-(methylaminosulfonyl)cyclohexyl]ethylamino}-1-(m-fluorophenyl)-1-ethanol], the Emax at 10 µM in experiment [1] was 50 to 75%; in experiment [2], below 25%.

`CNS(=O)(=O)[C@H]1CC[C@H](CC(C)(C)NC[C@H](O)c2cncc(F)c2)CC1` [Compound 478, (R)-2-{1,1-dimethyl-2-[(1r,4R)-4-(methylaminosulfonyl)cyclohexyl]ethylamino}-1-(5-fluoro-3-pyridyl)-1-ethanol]: the Emax at 10 µM was 25 to 50% in experiment [1] and below 25% in experiment [2].

As to `CC(=O)N(Cc1ccccc1)[C@H]1CC[C@@H](C[C@@H]2CC[C@H]([C@@H](O)c3cccc(F)c3)N2)CC1` [Compound 479, N-[(1R,4s)-4-({(2S,5R)-5-[(S)-(m-fluorophenyl) hydroxymethyl]-2-pyrrolidinyl}methyl)cyclohexyl]-N-benzylacetamide], the Emax at 10 µM in experiment [1] and in experiment [2] was below 25% in each case.

As for `CC(=O)N(Cc1ccccc1)[C@H]1CC[C@@H](C[C@@H]2CC[C@H]([C@H](O)c3cccc(F)c3)N2)CC1` [Compound 480, N-[(1R,4s)-4-({(2S,5R)-5-[(R)-(m-fluorophenyl) hydroxymethyl]-2-pyrrolidinyl}methyl)cyclohexyl]-N-benzylacetamide], the Emax at 10 µM in experiment [1] and in experiment [2] was below 25% each time.

Turning to `CC(=O)N(Cc1ccccc1)[C@H]1CC[C@H](C[C@@H]2CC[C@H]([C@@H](O)c3cccc(F)c3)N2)CC1` [Compound 481, N-[(1S,4r)-4-({(2S,5R)-5-[(S)-(m-fluorophenyl) hydroxymethyl]-2-pyrrolidinyl}methyl)cyclohexyl]-N-benzylacetamide], the Emax at 10 µM in experiment [1] and in experiment [2] was below 25% throughout.

Regarding `CC(=O)N(Cc1ccccc1)[C@H]1CC[C@H](C[C@@H]2CC[C@H]([C@H](O)c3cccc(F)c3)N2)CC1` [Compound 482, N-[(1S,4r)-4-({(2S,5R)-5-[(R)-(m-fluorophenyl) hydroxymethyl]-2-pyrrolidinyl}methyl)cyclohexyl]-N-benzylacetamide], the Emax at 10 µM in experiment [1] and in experiment [2] was below 25% in each case.

As to `CC(=O)N[C@H]1CC[C@@H](C[C@@H]2CC[C@H]([C@@H](O)c3cccc(F)c3)N2)CC1` [Compound 483], the Emax at 10 µM in experiment [1] and in experiment [2] was below 25% each time.

Take `CC(=O)N[C@H]1CC[C@@H](C[C@@H]2CC[C@H]([C@H](O)c3cccc(F)c3)N2)CC1` [Compound 484]: the Emax at 10 µM in experiment [1] was 50 to 75%; in experiment [2], below 25%.

Consider `CC(=O)N[C@H]1CC[C@H](C[C@@H]2CC[C@H]([C@H](O)c3cccc(F)c3)N2)CC1` [Compound 485], for which the figures for the Emax at 10 µM in experiment [1] and in experiment [2] were 50 to 75% and below 25%, respectively.

For the compound `CC(=O)N[C@H]1CC[C@H](C[C@@H]2CC[C@H]([C@@H](O)c3cccc(F)c3)N2)CC1` [Compound 486], the Emax at 10 µM is 50 to 75% in experiment [1] and below 25% in experiment [2].

With `O[C@@H](c1cccc(F)c1)C12CCC(COCc3ccc(OC(F)(F)F)cc3)(CC1)N2` [Compound 487], the Emax at 10 µM in experiment [1] and in experiment [2] was below 25% throughout.

As to `O[C@H](c1cccc(F)c1)C12CCC(COCc3ccc(OC(F)(F)F)cc3)(CC1)N2` [Compound 488], the Emax at 10 µM in experiment [1] and in experiment [2] was below 25% each time.

Take `O[C@@H](c1cncc(F)c1)C12CCC(COCc3ccc(OC(F)(F)F)cc3)(CC1)N2` [Compound 489, (S)-(5-fluoro-3-pyridyl)(4-{[(p-trifluoromethoxyphenyl)methoxy]methyl}-7-azabicyclo[[2.2.1]]hept-1-yl)methanol]: the Emax at 10 µM in experiment [1] and in experiment [2] was below 25% throughout.

As to `O[C@H](c1cncc(F)c1)C12CCC(COCc3ccc(OC(F)(F)F)cc3)(CC1)N2` [Compound 490], the Emax at 10 µM was 50 to 75% in experiment [1] and below 25% in experiment [2].

Take `CC(=O)N(C)[C@H]1CC[C@@H](CC(C)(C)NC[C@H](O)c2cncc(F)c2)CC1` [Compound 492]: the “Biological example 2 (GU)” value in experiment [1] is “+ (if it is between 50 and 25% it is denoted with +)”. Also, in experiment [2], the “Biological example 3 (CAMP)” value is “− (if it less than 25% it is denoted with −)”.

In the case of `CC(C)(C[C@H]1CC[C@@H](NS(=O)(=O)C(F)(F)F)CC1)NC[C@H](O)c1cccc(F)c1` [Compound 493, (R)-2-{1,1-dimethyl-2-[(1s,4S)-4-(trifluoromesylamino)cyclohexyl]ethylamino}-1-(m-fluorophenyl)-1-ethanol], the Emax at 10 µM in experiment [1] is 25 to 50%; in experiment [2], below 25%.

As to `CNS(=O)(=O)[C@H]1CC[C@@H](CC(C)(C)NC[C@H](O)c2cncc(F)c2)CC1` [Compound 495], the results for the Emax at 10 µM in experiment [1] and in experiment [2] were 50 to 75% and below 25%, respectively.

Take `CC(C)(C[C@H]1CC[C@H](NS(=O)(=O)C2CC2)CC1)NC[C@H](O)c1cccc(F)c1` [Compound 496]: the Emax at 10 µM in experiment [1] is 50 to 75%; in experiment [2] it was below 25%.

With `CN([C@H]1CC[C@@H](CC(C)(C)NC[C@H](O)c2cccc(F)c2)CC1)S(C)(=O)=O` [Compound 498, (R)-2-{1,1-dimethyl-2-[(1s,4S)-4-(N-mesyl-N-methylamino)cyclohexyl]ethylamino}-1-(m-fluorophenyl)-1-ethanol], the Emax at 10 µM in experiment [1] was 25 to 50%; in experiment [2], below 25%.

With `O[C@H](c1cccc(F)c1)C12CCC(Cc3ccc(OC(F)(F)F)cc3)(CC1)N2` [Compound 500, (S)-(m-fluorophenyl){4-[(p-trifluoromethoxyphenyl)methyl]-7-azabicyclo[[2.2.1]]hept-1-yl}methanol], the Emax at 10 µM in experiment [1] and in experiment [2] was below 25% each time.

Take `CS(=O)(=O)N(Cc1ccccc1)[C@H]1CC[C@H](C[C@@H]2CC[C@H]([C@H](O)c3cccc(F)c3)N2)CC1` [Compound 502]: the Emax at 10 µM in experiment [1] and in experiment [2] was below 25% in each case.

With `CS(=O)(=O)N(Cc1ccccc1)[C@H]1CC[C@H](C[C@@H]2CC[C@H]([C@@H](O)c3cccc(F)c3)N2)CC1` [Compound 503, (S)-[(2R,5S)-5-({(1r,4S)-4-[(benzyl)-N-mesylamino]cyclohexyl}methyl)-2-pyrrolidinyl](m-fluorophenyl)methanol], the Emax at 10 µM in experiment [1] and in experiment [2] was below 25% throughout.

Turning to `CS(=O)(=O)N[C@H]1CC[C@H](C[C@@H]2CC[C@H]([C@H](O)c3cccc(F)c3)N2)CC1` [Compound 504], the figures for the Emax at 10 µM in experiment [1] and in experiment [2] were 50 to 75% and below 25%, respectively.

As for `CS(=O)(=O)N[C@H]1CC[C@H](C[C@@H]2CC[C@H]([C@@H](O)c3cccc(F)c3)N2)CC1` [Compound 505, (S)-[(2R,5S)-5-{[(1r,4S)-4-(mesylamino)cyclohexyl]methyl}-2-pyrrolidinyl](m-fluorophenyl)methanol], the Emax at 10 µM in experiment [1] and in experiment [2] was below 25% throughout.

Regarding `CC(=O)N(C)[C@H]1CC[C@H](CC(C)(C)NC[C@H](O)c2cncc(F)c2)CC1` [Compound 506], the Emax at 10 µM in experiment [1] is above 75%; in experiment [2] it was 25 to 50%.

Take `CC(=O)N(C)[C@H]1CC[C@@H](CC(C)(C)NC[C@H](O)c2cncc(F)c2)CC1` [Compound 507]: the “Biological example 2 (GU)” value in experiment [1] is “++ (if it is between 75 and 50% it is denoted with ++)”. Besides, in experiment [2], the Emax at 10 µM was below 25%.

Turning to `CS(=O)(=O)N(Cc1ccccc1)[C@H]1CC[C@@H](C[C@@H]2CC[C@H]([C@H](O)c3cccc(F)c3)N2)CC1` [Compound 508, (R)-[(2R,5S)-5-({(1s,4R)-4-[(benzyl)-N-mesylamino]cyclohexyl}methyl)-2-pyrrolidinyl](m-fluorophenyl)methanol], the Emax at 10 µM in experiment [1] and in experiment [2] was below 25% in each case.

Take `CS(=O)(=O)N(Cc1ccccc1)[C@H]1CC[C@@H](C[C@@H]2CC[C@H]([C@@H](O)c3cccc(F)c3)N2)CC1` [Compound 509, (S)-[(2R,5S)-5-({(1s,4R)-4-[(benzyl)-N-mesylamino]cyclohexyl}methyl)-2-pyrrolidinyl](m-fluorophenyl)methanol]: the Emax at 10 µM in experiment [1] and in experiment [2] was below 25% each time.
